Reference: patent publication US9139532B2, “Pyrazolyl guanidine F1F0-atpase inhibitors and therapeutic uses thereof” (Lycera Corporation, priority 2010, dated 2015)
Read-outs that look alike come from different tables or passages of the source.

Tests used:
F1F0-ATPase = biological target: T1, F1F0-ATPase (Bos taurus, UniProt P13621); assay: Inhibition of F1F0-ATPase activity in synthesizing ATP; type: biochemical; conditions: inhibition of ATP synthesis by F1F0-ATPase; read-out: ATP Syn IC50
T1 construct: from tissue

Ramos cells = assay: Cytotoxicity in Ramos cells; type: cell-based; conditions: cytotoxicity in Ramos cells, read-out: Ramos Cell EC50

Structure (SMILES)	IC50 (F1F0-ATPase) [µM]	EC50 (Ramos cells; Homo sapiens) [µM]	EC50 (Ramos cells) [µM]
O=C(/N=c1\[nH]c2cc(C(F)(F)F)nn2c(=O)n1Cc1ccc(F)cc1Cl)c1ccc(F)c(F)c1 [Compound A-567, (E)-N-(3-(2-chloro-4-fluorobenzyl)-4-oxo-7-(trifluoromethyl)-3,4-dihydropyrazolo[1,5-a][1,3,5]triazin-2(1H)-ylidene)-3,4-difluorobenzamide]	< 10	< 10	
CC1(C)Cn2nc(-c3ccc(F)cc3)cc2N/C(=N\C(=O)c2ccc(F)cc2)N1 [Compound A-568, (Z)-4-fluoro-N-(8-(4-fluorophenyl)-4,4-dimethyl-4,5-dihydro-1H-pyrazolo[1,5-a][1,3,5]triazepin-2(3H)-ylidene)benzamide]	< 10	< 10	
CC(C)CN/C(=N/C(=O)c1ccc(F)c(F)c1)Nc1cc(-c2ccc(CO)cc2)n[nH]1 [Compound A-570, (Z)-3,4-Difluoro-N-(((3-(4-(hydroxymethyl)phenyl)-1H-pyrazol-5-yl)amino)(isobutylamino)methylene)benzamide]	> 10	> 10	
COc1ccc(-c2cc(N/C(=N\C(=O)c3ccc(C(F)(F)F)cc3)NCC(C)C)[nH]n2)cc1F [Compound A-571]	< 10		< 10
COc1ccc(-c2cc(N/C(=N\C(=O)c3ccc(C(F)(F)F)cc3)NCC(C)(C)C)[nH]n2)cc1F [Compound A-573]	< 10		> 10

More lines, main results first:

IC50 (F1F0-ATPase) [µM]	Structure (SMILES)	EC50 (Ramos cells; Homo sapiens) [µM]	EC50 (Ramos cells) [µM]
< 10	CC(C)CN/C(=N/C(=O)c1cccc([S+](C)[O-])c1)Nc1cc(-c2ccc(F)cc2)n[nH]1 (stereo not shown) [Compound A-566, (Z)—N-(((3-(4-Fluorophenyl)-1H-pyrazol-5-yl)amino)(isobutylamino)methylene)-3-(methylsulfinyl)benzamide]	< 10	
> 10	O=C(/N=C1\Nc2cc(-c3ccc(F)cc3)nn2C[C@@H]2CCCN12)c1ccc(F)cc1 [Compound A-569, (S,E)-4-fluoro-N-(2-(4-fluorophenyl)-8,9,9a,10-tetrahydro-4H-pyrazolo[1,5-a]pyrrolo[1,2-e][1,3,5]triazepin-5(7H)-ylidene)benzamide]	> 10	
< 10	COC[C@H](C)N/C(=N/C(=O)c1ccc(C(F)(F)F)cc1)Nc1cc(-c2ccc(OC)c(F)c2)n[nH]1 [Compound A-572]		> 10
< 10	COc1ccc(-c2cc(N/C(=N\C(=O)c3ccc(C(F)(F)F)cc3)NC3CCCC3)[nH]n2)cc1F [Compound A-574]		> 10
< 10	COc1ccc(-c2cc(N/C(=N\C(=O)c3ccc(C(F)(F)F)cc3)NC(C)(C)C)[nH]n2)cc1F [Compound A-575]		< 10
< 10	CC(C)CN/C(=N/C(=O)c1cccc([S+](C)[O-])c1)Nc1cc(-c2ccc(F)cc2)n[nH]1 (stereo not shown) [Compound A-576]		< 10
